Test [1] concerns LbCas12a. The test can be described thus: LbCas12a in vitro cleavage assay. It is filed as biochemical. The following applies: 100 μM. How it is done:
In vitro cleavage experiments were performed using purified recombinant LbCas12a proteins similar to SpCas9 cleavage assays. LbCas12a proteins (50 nM), crRNA (50 nM), and different concentrations of the inhibitor compounds were mixed in NEBuffer 2 (New England Biolabs). After incubation at room temperature for 10 min, ScaI-linearized pUC19 DNA was added to a final concentration of 1.52 nM. The solution was vortex mixed and centrifuged, then incubated for 45 min in a water bath at 37 °C. The reaction was quenched with 0.5 μL proteinase K for 15 min at 56 °C. The samples were mixed with DNA loading buffers and resolved by 1.2% TAE agarose gel electrophoresis. Gel bands were visualized by Chemidoc XRS plus system (Bio-Rad, Hercules, CA, USA).

The target of test [2] is T1, SpCas9–gRNA complex (Streptococcus pyogenes serotype M1, UniProt Q99ZW2).
T1 construct: His6 (N); TEV site (N); made in house; host or cells: E. coli BL21 Star (DE3)
T1 sequence (Q99ZW2 whole entry, one chain of several): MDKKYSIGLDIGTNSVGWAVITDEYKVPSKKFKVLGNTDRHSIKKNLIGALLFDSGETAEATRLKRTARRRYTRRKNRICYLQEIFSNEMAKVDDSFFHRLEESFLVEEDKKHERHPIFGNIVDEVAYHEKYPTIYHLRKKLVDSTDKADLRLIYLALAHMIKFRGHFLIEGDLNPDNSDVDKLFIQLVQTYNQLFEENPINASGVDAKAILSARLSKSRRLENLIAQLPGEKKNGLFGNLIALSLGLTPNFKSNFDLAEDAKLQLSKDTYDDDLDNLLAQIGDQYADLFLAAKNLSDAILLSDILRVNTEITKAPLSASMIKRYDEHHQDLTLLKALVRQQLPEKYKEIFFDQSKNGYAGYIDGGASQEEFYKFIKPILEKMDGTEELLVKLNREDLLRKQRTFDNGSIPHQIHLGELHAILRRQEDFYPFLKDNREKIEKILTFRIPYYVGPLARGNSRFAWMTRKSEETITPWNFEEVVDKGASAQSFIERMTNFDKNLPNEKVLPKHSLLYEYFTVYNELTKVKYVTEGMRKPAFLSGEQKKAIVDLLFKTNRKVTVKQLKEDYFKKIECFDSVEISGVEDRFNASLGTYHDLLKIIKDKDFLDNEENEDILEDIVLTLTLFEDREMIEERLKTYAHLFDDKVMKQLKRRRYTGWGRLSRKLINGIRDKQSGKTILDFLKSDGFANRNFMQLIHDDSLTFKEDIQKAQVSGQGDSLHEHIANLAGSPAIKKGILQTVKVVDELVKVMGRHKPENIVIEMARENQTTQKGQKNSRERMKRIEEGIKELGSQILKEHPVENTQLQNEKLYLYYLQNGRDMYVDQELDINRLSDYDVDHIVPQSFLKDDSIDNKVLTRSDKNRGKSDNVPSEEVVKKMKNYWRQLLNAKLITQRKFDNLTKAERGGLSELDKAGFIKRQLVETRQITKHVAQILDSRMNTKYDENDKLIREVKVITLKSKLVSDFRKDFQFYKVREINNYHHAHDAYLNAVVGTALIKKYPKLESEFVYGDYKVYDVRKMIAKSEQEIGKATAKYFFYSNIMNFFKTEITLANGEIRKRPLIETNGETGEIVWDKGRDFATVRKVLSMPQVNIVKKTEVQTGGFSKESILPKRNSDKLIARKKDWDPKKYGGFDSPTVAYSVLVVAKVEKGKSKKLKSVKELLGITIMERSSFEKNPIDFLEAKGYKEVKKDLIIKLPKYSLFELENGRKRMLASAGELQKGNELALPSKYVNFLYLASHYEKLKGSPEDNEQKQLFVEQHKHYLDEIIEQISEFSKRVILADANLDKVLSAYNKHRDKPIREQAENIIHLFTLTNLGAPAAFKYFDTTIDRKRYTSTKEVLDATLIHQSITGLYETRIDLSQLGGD
The test can be described thus: Competitive fluorescence polarization assay, SpCas9-gRNA. It is filed as binding. In general terms: In fluorescence polarisation assays a small probe gives low polarisation when free and higher when bound to something large.

The test system of test [3] is dSpCas9–gRNA complex. The test is described as follows: Competitive fluorescence polarization assay, dSpCas9-gRNA. It is filed as binding, Streptococcus pyogenes. The following applies: FITC-DNA 25 nM, compounds 50 μM, PAM-DNA 1.25 μM.
Test [4] has as its target T1, SpCas9–gRNA complex. The test can be described thus: Microscale thermophoresis (MST), SpCas9-gRNA RNP. As to conditions: SpCas9-EGFP/gRNA RNP (1:1) 200 nM, 25 °C. The class given is binding. How it is done:
(§1) The MST method was carried out similar to the previous report. The binding ability of the compounds to SpCas9 in different states was tested by Monolith NT.115 (NanoTemper Technologies, Munich, Germany). The SpCas9-EGFP fusion protein or the SpCas9-EGFP/gRNA RNP complex (protein: gRNA = 1:1) was diluted with a binding buffer (50 mM Tris-HCl, pH 7.4, 150 mM NaCl, 0.05% Tween-20, and 10 mM MgCl2) to make a final concentration of 200 nM. The protein diluent was mixed with the compound diluent in equal volume. The mixture was kept at room temperature for 10 min. Then the sample was loaded into the NanoTemper standard capillaries. All experiments were carried out at 25 °C, 80% MST power, and 50% LED power. The data were analyzed with the NanoTemper MO affinity analysis software (NanoTemper Technologies, Munich, Germany). The raw data were then exported and plotted with Origin 2020b (OriginLab, Northampton, MA, USA).

Test [5] relates to Flag-tagged SpCas9 protein expression. As to conditions: western blot, GAPDH loading control, concentrations tested. For orientation: In western blotting, separated proteins are transferred to a membrane and probed.
Procedure: The reporter 293T cells were seeded into 96-well plates at a density of 10,000 cells per well and cultured overnight before the addition of DMSO alone or various compounds (in DMSO solution) at appropriate concentrations (0.125–100 μM) with or without 2 μg/mL doxycycline for an additional 72 h of incubation. The cells were then harvested for analysis with the CytoFLEX flow cytometer (Beckman Coulter, Brea, CA, USA) or analyzed by western blot with antibodies as indicated. […] The inhibiting efficiency in reporter 293T cells was calculated using the following equation: E’ = (P2 − P1)/(P0 − P1) × 100%, where E’ is the inhibiting efficiency in reporter 293T cells, and P0, P1, and P2 are the GFP positive cell ratio of the uninduced group, Dox and DMSO treated control group, and Dox and compound treated group, respectively.
In test [6] the test system is FITC-DNA. The following applies: compared with DMSO, no SpCas9.
Procedure: The fluorescence polarization experiment was as previously reported [33]. […] The DNA was labeled at the 3′ end with fluorescein isothiocyanate (FITC). The other one is complementary to the first 58 bases of the previous oligonucleotide. These two oligonucleotides were annealed to generate the target DNA substrate labeled with fluorescent molecules (FITC-DNA). Unlabeled DNA (PAM-DNA) was considered competitive positive controls. Experiments were performed on black 384-well plates (Corning, New York, NY, USA). 50 nM SpCas9-gRNA (1:1) and different concentrations of the compound were added to the reaction buffer (50 mM Tris-HCl, pH 8.0, 0.1 M NaCl, 10 mM MgCl2, and 1 mM DTT). PAM-DNA (1250 nM) was used as a positive control. The mixture was then incubated at room temperature for 30 min, and FITC-DNA was added to the final concentration of 25 nM in each well. Fluorescence polarization signals were measured using a multilabel reader (Victor X5, PerkinElmer, Waltham, MA, USA) within 10 min. These values were plotted using GraphPad Prism 6.0 software (San Diego, CA, USA).
Test [7] deals with T2, SpCas9 (Streptococcus pyogenes serotype M1, UniProt Q99ZW2). The test can be described thus: On- and off-target editing at endogenous loci in iCas9 U2OS cells (deep sequencing). More on the design: expressed in transfected cells. The class given is cell-based. The following applies: +Dox. How it is done: The iCas9-expressing U2OS cells were first through lentiviral infection. The cells were cultured with 1 μg/mL puromycin until all cells in the negative control group were dead. Monoclonal cells were then isolated and verified. Lentiviruses encoding appropriate gRNAs were used to infect the iCas9 U2OS cells, which were further selected with 10 μg/mL Blasticidin S HCL (Gibco, New York, NY, USA) until all cells in the control group were dead. The iCas9/gRNA cells were then plated in 12-well plates (Thermo Fisher Scientific) at ~40% confluence per well at 24 h before the doxycycline (2 μg/mL) addition. An individual inhibitor compound was also added at this point at the appropriate concentrations. DMSO alone served as the control. Cells cultured without doxycycline served as the SpCas9 cleavage control. After 24 h, cells were collected for genomic DNA extraction using the AxyPrep blood genomic DNA miniprep kit (Axygen, New York, NY, USA). Sequences surrounding the on- and off-target sites were amplified using barcoded primers (Supplementary Table S3) and the KOD PCR kit (Toyobo, Japan) to generate the sequencing libraries. Single-read sequencing of the pooled samples were performed on the 150 Hiseq 2000 (Illumina, San Diego, CA, USA). Each experiment was repeated twice. MATLAB was used to split the sequencing file and CRISPResso2 [38] was used to analyze the frequency of indels.
T2 sequence (Q99ZW2 whole entry): as the sequence (Q99ZW2 whole entry, one chain of several) above

Test [8] addresses T2, SpCas9. The test can be described thus: Microscale thermophoresis (MST), SpCas9. The following applies: SpCas9–EGFP fusion protein 200 nM, 25 °C. The class given is binding. More on the design: His6 (N); TEV site (N); made in house; host or cells: E. coli BL21 Star (DE3). How it is done: as §1
The target of test [9] is T2, SpCas9. The test can be described thus: Inhibition of SpCas9 nuclease activity in EGFP/iCas9/gRNA-EGFP reporter 293T cells (flow cytometry). The class given is cell-based. More on the design: expressed in transfected cells; host or cells: H2AX-EGFP HEK293T cells, lentiviral transduction, doxycycline-induced. The text has this: The H2AX-EGFP 293T cell line was first generated using the previously reported MMEJ-mediated CRIS-PITCh system. Briefly, we cloned two gRNAs (Supplementary Table S3) that respectively target H2AX gene and the PITCh vector into the px330 plasmid (Addgene, #42230). The PITCh vector contains a pair of 20-bp homologous sequences targeting the upstream and downstream regions of the H2AX gRNA cleavage site, and the SFB-EGFP expression cassette. The three plasmids were co-transfected into 293T cells at an equimolar ratio. GFP-positive cells were sorted by FACS and individually expanded to isolate single clones for genomic DNA extraction and PCR verification of successful knock-in (KI) of the SFB-EGFP cassette into 5′-end of first exon of the H2AX gene. The selected H2AX-EGFP 293T cell clone was subsequently infected with lentiviruses encoding tetracycline-inducible SpCas9 (iCas9). After drug selection, individual clones were again expanded and verified for inducible Cas9 expression. The selected clone was subsequently infected with lentivirus encoding a gRNA that targets EGFP. Puromycin-resistant clones ([…], Thermo Fisher Scientific) were then isolated after >7 days for further analysis.
A general note: In flow cytometry, cells or beads pass a laser one at a time.

Where “and” joins values, the source holds several entries; their conditions need not be identical. Identical values can stand only once.

From publication PMC9688475, “Identification and Analysis of Small Molecule Inhibitors of CRISPR-Cas9 in Human Cells” (Cells, 2022) come the findings set out here.

For orientation: EC50 means the concentration giving half of the maximal effect.

For the compound `CC1(C)CC(=NNc2ccc([N+](=O)[O-])cc2[N+](=O)[O-])CC(C)(C)N1C(=O)COCC(=O)N1C(C)(C)CC(=NNc2ccc([N+](=O)[O-])cc2[N+](=O)[O-])CC1(C)C` [SP2], the “inhibition of LbCas12a-mediated cleavage” value in [1] is on record as “no inhibition”. Moreover, in test [2] (50 μM), the “change of FP signals of SpCas9-gRNA and DNA” value is given as below 5%. Moreover, in test [2] (SpCas9+gRNA 50 nM, FITC-DNA 25 nM, compounds 50 μM, PAM-DNA 1.25 μM), the “Fluorescence Polarization (mP)” value is recorded as 160.5 mP. In addition, in test [3], the “Fluorescence Polarization (mP)” value turned out to be 209.5 mP. In addition, in test [4], the EC50 is 5.63 ± 3.65 µM. In test [5], the “effect on SpCas9 expression” value is recorded as “Neither compound appeared to affect SpCas9 expression”. Moreover, the “effect on fluorescence polarization value of fluorescence-labeled DNA” value in test [6] is “did not affect”. Moreover, in test [7] (2.5 μM), the “reduction of SpCas9 off-target editing, EMX1-2” value is given as 63.3%. In [7] (24 h, SP2 2.5 μM, SP24 0.5 μM), the “Indel (%) EMX1-1 Off-target” value worked out at 21.7%; the “Indel (%) EMX1-1 On-target” value was determined as 42.2%; the “Indel (%) EMX1-2 Off-target” value was 1.1%; the “Indel (%) EMX1-2 On-target” value is ~ 18% and 17.8%. In addition, in test [7] (24 h, SP2 2.5 μM, SP24 0.5 μM), the “Indel (%) ZSCAN2 Off-target” value came out at 6.7%; the “Indel (%) ZSCAN2 On-target” value was 32.2%; the “ratio of on-target vs. off-target indels, EMX1-1” value is recorded as 1.94 x; the “ratio of on-target vs. off-target indels, EMX1-2” value is recorded as 16.18 x. Further, the “ratio of on-target vs. off-target indels, ZSCAN2” value in test [7] (24 h, SP2 2.5 μM, SP24 0.5 μM) was 4.81 x. For the same compound, in test [7] (24 h, SP2 2.5 μM, SP24 1 μM), the “Indel (%) VEGFA-3 Off-target” value was 1.4%; the “Indel (%) VEGFA-3 On-target” value stood at 35.2%; the “ratio of on-target vs. off-target indels, VEGFA-3” value came out at 25.14 x. The same compound returned a concentration for a half-maximal effect (EC50) in test [8] of 44.2 ± 35.4 µM. In addition, the “SpCas9 inhibition in reporter cells” value in test [9] (10 μM, Dox 2 μg/mL, 72 h) was found to be 50%. The “inhibitory activity in reporter cells (in words)” value in [9] (from 40 to 2 μM) is given as “changed little”. In [9] (titration, Dox 2 μg/mL, 72 h, flow cytometry), this compound came in with an EC50 of 5.07 µM.
